Tests used:
Format in all cases: cell-based
[1] = test system: Human dermal fibroblast (hF); experiment: Cytotoxicity test (cell survival), MTT assay, hF; conditions: 24 hours
Experimental: (§1) 3. Cytotoxicity Test (Cell Survival Test)
(§2) Cytotoxicity was conducted through an MTT assay (Chemicon, Serologicals Corporation, USA) as follows.
(§3) Cells were seeded at a density of 3×10^4 cells/well in 96-well plates (Nunc Do, Denmark).
(§4) When the cells were at a confluence of about 60˜70%, 24 hours after seeding, the media was exchanged for 100 μl of fresh, serum-free media containing various respective concentrations of ALA or ALA-ester, after which the cells were incubated for an additional 24 hours.
(§5) An MTT solution (0.5 mg/mL) was added in an amount of […] to each well, followed by incubation for 4 hours to form formazan crystals. A color-developing solution (isopropanol with 0.04 N HCl) was added in an amount of […] per well to solubilize the formazan crystals.
(§6) The plates were measured for absorbance at 570 nm using an ELISA reader (EMAX, Molecular Device, USA).
(2) Human Dermal Fibroblast (hF)

[2] = test system: A431 cells; experiment: Fluorescence spectroscopy of PpIX synthesis in A431 cells (FIG. 1); conditions: 4 hours incubation, excitation 405 nm, emission 605 nm
Experimental: 4. Fluorescence Spectroscopy
The synthesis of PpIX, induced by ALA and unsaturated alkyl esters of ALA in cells and skin tissues, was quantified using fluorescence spectroscopy.
The intensity of PpIX was measured on a fluorescence spectrophotometer (Uvikon, model 943) with excitation at 408 nm.
Each cell line was plated at a density of 2×10^5 cells in a 10 cm^2-dish (Falcon), and when the cells reached a confluent state of 70˜80%, serum-free media containing various concentrations (0.001˜1 mM) of ALA or ALA esters was added to the cells, followed by incubation for 4 hours.
After being washed once with PBS, the cells were detached with a 50% methanol solution containing 1M […] (HClO4) and scraped off using a Costar cell scraper.
The cells thus harvested were incubated for 5 min and centrifuged.
The fluorescence of the supernatant thus obtained was determined using a spectrofluorometer with excitation at 405 nm and emission at 605 nm.
The results are graphed in FIGS. 1 and 2.

[3] = test system: Malignant melanoma (TMX 13); experiment: Cytotoxicity test (cell survival), MTT assay, TXM 13; conditions: 24 hours
Experimental: as §1, §2, §3, §4, §5, §6
(4) Malignant Melanoma (TMX 13)

[4] = test system: Squamous cell carcinoma (A431); experiment: Cytotoxicity test (cell survival), MTT assay, A431; conditions: 24 hours
Experimental: as §1, §2, §3, §4, §5, §6
(3) Squamous Cell Carcinoma (A431)

[5] = test system: Human epidermal keratinocyte (HEK); experiment: Cytotoxicity test (cell survival), MTT assay, HEK; conditions: 24 hours; for MTT absorbance (OD): 570 nm; for Cell survival Avg (%) ± SD (%): Table 3; for activity at 10 µM / activity at 2000 µM / activity at 50 µM / activity at 100 µM / activity at 500 µM / activity at 1000 µM / activity at 5000 µM: Homo sapiens, Table 2, read-out: Cell survival (% of control C, in brackets); for activity at 10 µM: HEK001, 0.01 mM; for activity at 2000 µM: HEK2, 2 mM; for activity at 50 µM / activity at 100 µM / activity at 500 µM / activity at 1000 µM / activity at 5000 µM: Keratinocyte
Experimental: as §1, §2, §3, §4, §5, §6
(1) Human Epidermal Keratinocyte (HEK)
Cell survival of the human epidermal keratinocytes treated with ALA esters of the present invention and with ALA was compared. The results are summarized in Tables 1 and 2, which are represented in different manners depending on the measurements.

## C=CCCCOC(=O)CCC(=O)CN [ALA-4, 5-Aminolevulinic acid 4-pentenyl ester]
[1]; 0.01 mM
  Cell survival Avg (%) ± SD (%): 101.13 ± 13.45%
[1]; 0.05 mM
  Cell survival Avg (%) ± SD (%): 114.49 ± 17.1%
[1]; 0.1 mM
  Cell survival Avg (%) ± SD (%): 103.35 ± 14.09%
[1]; 0.5 mM
  Cell survival Avg (%) ± SD (%): 95.81 ± 10.6%
[1]; 1 mM
  Cell survival Avg (%) ± SD (%): 100.32 ± 6.36%
[1]; 2 mM
  Cell survival Avg (%) ± SD (%): 93.13 ± 8.07%
[2]
  PpIX synthesis compared with ALA: greater PpIX synthesis in A431 cells than did ALA
[3]; TXM 13, 0.01 mM
  Cell survival Avg ± SD (%): 96.3 ± 14.69%
[3]; TXM 13, 0.05 mM
  Cell survival Avg ± SD (%): 83.42 ± 12.09%
[3]; TXM 13, 0.1 mM
  Cell survival Avg ± SD (%): 72.55 ± 9.25%
[3]; TXM 13, 0.5 mM
  Cell survival Avg ± SD (%): 75.01 ± 13.79%
[3]; TXM 13, 1 mM
  Cell survival Avg ± SD (%): 60.95 ± 8.31%
[3]; TXM 13, 2 mM
  Cell survival Avg ± SD (%): 49.85 ± 53.24%
[4]; A431, 0.01 mM
  Cell survival Avg (%) ± SD (%): 101.68 ± 0.81%
[4]; A431, 0.05 mM
  Cell survival Avg (%) ± SD (%): 102.51 ± 0.54%
[4]; A431, 0.1 mM
  Cell survival Avg (%) ± SD (%): 93.24 ± 2.17%
[4]; A431, 0.5 mM
  Cell survival Avg (%) ± SD (%): 80.91 ± 1.6%
[4]; A431, 1 mM
  Cell survival Avg (%) ± SD (%): 80.11 ± 3.43%
[4]; A431, 2 mM
  Cell survival Avg (%) ± SD (%): 84.57 ± 1.77%
[5]; 0.01 mM
  MTT absorbance (OD): 2.8 OD
[5]; 0.05 mM
  MTT absorbance (OD): 2.603 OD
  Cell survival Avg (%) ± SD (%): 66.21 ± 0.59%
  activity at 50 µM: 71.6%
[5]; 0.1 mM
  MTT absorbance (OD): 2.98 OD
  Cell survival Avg (%) ± SD (%): 53.63 ± 0.51%
  activity at 100 µM: 82%
[5]; 0.5 mM
  MTT absorbance (OD): 2.561 OD
  Cell survival Avg (%) ± SD (%): 50.17 ± 0.51%
  activity at 500 µM: 70.5%
[5]; 1 mM
  MTT absorbance (OD): 2.475 OD
  Cell survival Avg (%) ± SD (%): 57.17 ± 1.60%
  activity at 1000 µM: 68.3%
[5]; 2 mM
  MTT absorbance (OD): 2.407 OD
  Cell survival Avg (%) ± SD (%): 44.82 ± 3.43%
[5]; 5 mM
  MTT absorbance (OD): 1.354 OD
  activity at 5000 µM: 37.1%
[5]
  activity at 10 µM: 77.3%
  activity at 2000 µM: 66.3%

## C=CCCOC(=O)CCC(=O)CN [ALA-3, 5-Aminolevulinic acid 3-butenyl ester]
[1]; 0.01 mM
  Cell survival Avg (%) ± SD (%): 114.28 ± 5.4%
[1]; 0.05 mM
  Cell survival Avg (%) ± SD (%): 126.76 ± 3.88%
[1]; 0.1 mM
  Cell survival Avg (%) ± SD (%): 115.65 ± 6.85%
[1]; 0.5 mM
  Cell survival Avg (%) ± SD (%): 110.21 ± 4.21%
[1]; 1 mM
  Cell survival Avg (%) ± SD (%): 96.59 ± 16.88%
[1]; 2 mM
  Cell survival Avg (%) ± SD (%): 94.97 ± 9.7%
[3]; TXM 13, 0.01 mM
  Cell survival Avg ± SD (%): 102.16 ± 10.55%
[3]; TXM 13, 0.05 mM
  Cell survival Avg ± SD (%): 95.03 ± 10%
[3]; TXM 13, 0.1 mM
  Cell survival Avg ± SD (%): 96.89 ± 7.99%
[3]; TXM 13, 0.5 mM
  Cell survival Avg ± SD (%): 90.58 ± 3.8%
[3]; TXM 13, 1 mM
  Cell survival Avg ± SD (%): 92.34 ± 4.31%
[3]; TXM 13, 2 mM
  Cell survival Avg ± SD (%): 78.81 ± 6.22%
[4]; A431, 0.01 mM
  Cell survival Avg (%) ± SD (%): 104.08 ± 0.59%
[4]; A431, 0.05 mM
  Cell survival Avg (%) ± SD (%): 105.59 ± 0.51%
[4]; A431, 0.1 mM
  Cell survival Avg (%) ± SD (%): 105.48 ± 0.51%
[4]; A431, 0.5 mM
  Cell survival Avg (%) ± SD (%): 97.46 ± 3.82%
[4]; A431, 1 mM
  Cell survival Avg (%) ± SD (%): 97.65 ± 4.75%
[4]; A431, 2 mM
  Cell survival Avg (%) ± SD (%): 102.85 ± 1.53%
[5]; 0.01 mM
  MTT absorbance (OD): 2.919 OD
  Cell survival Avg (%) ± SD (%): 116.69 ± 0.69%
[5]; 0.05 mM
  MTT absorbance (OD): 3.57 OD
  Cell survival Avg (%) ± SD (%): 94.01 ± 0.59%
  activity at 50 µM: 103%
[5]; 0.1 mM
  MTT absorbance (OD): 3.413 OD
  Cell survival Avg (%) ± SD (%): 125.58 ± 0.51%
  activity at 100 µM: 98.2%
[5]; 0.5 mM
  MTT absorbance (OD): 2.838 OD
  Cell survival Avg (%) ± SD (%): 88.14 ± 0.51%
  activity at 500 µM: 81.8%
[5]; 1 mM
  MTT absorbance (OD): 2.592 OD
  Cell survival Avg (%) ± SD (%): 72.02 ± 3.82%
  activity at 1000 µM: 74.9%
[5]; 2 mM
  MTT absorbance (OD): 2.185 OD
  Cell survival Avg (%) ± SD (%): 83.69 ± 4.75%
[5]; 5 mM
  MTT absorbance (OD): 2.101 OD
  activity at 5000 µM: 60.5%
[5]
  activity at 10 µM: 83.8%
  activity at 2000 µM: 63.1%

— patent publication US8198325B2, “Unsaturated alkyl esters of 5-aminolevulinic acid, their preparation and their use” (Industry Foundation of Chonnam National University, priority 2006, dated 2012)
